Tested on: β-galactosidase in tumor sections
Assay: IHC analysis of β-galactosidase staining in intraliver tumor sections after i.v. dosing of Lipid-Based Particles
Type: in vivo, Scid female mice
Set-up: key: −: there was no staining, a small area of weak staining, or disperse strong single cell staining; ±: there was 5% of the section with weak staining or one patch of strong staining; +: there was 15% of the section with strong staining; ++: there was ˜50% of the section with strong straining; +++: there was 80% of the section with strong straining; ++++: the whole section had strong staining
Conditions: intraliver tumor model, Scid mice, tail vein (i.v) injection
Method: The animal studies were carried out in accordance with internal Institutional Animal Care and Use Committee (IACUC) guidelines at Abbott Laboratories. Scid female mice at 6 to 8 weeks of age were obtained from Charles River Laboratory and used for […] tumor models. Mouse livers were exposed by vertical incision on mouse abdomens and the tumor cells were directly injected into the livers. The incision was closed by suture and wound clips. All cell lines used for creating xenograft tumors were subjected to the IMPACT profile I test (18 agents) at the University of Missouri Research Animal Diagnostic and Investigative Laboratory, and all cell lines were found negative for the 18 infectious agents tested. Tumor cells were suspended in a 1:1 mixture of S-MEM (Invitrogen, Carlsbad, Calif.) and matrigel (BD Bioscience, San Jose, Calif.) and inoculated at 1×10E6 cells per animal. Treatments were started 3 4 weeks after tumor inoculation. Formulated or unformulated siRNAs were administrated via tail vein (i.v) injection. IHC was carried out as previously described [Li, L., et al., Evaluating hypoxia-inducible factor-1alpha as a cancer therapeutic target via inducible RNA interference in vivo. Cancer Res, 2005. 65(16): p. 7249-58]. Briefly, tumors were excised, cut into pieces of less than 3 mm in thickness and immediately fixed in buffered formalin solution with neutral pH (Sigma, St. Louis, Mo.). The formalin-fixed and paraffin-embedded tumor sections were then used for staining. The mouse anti-β-galactosidase mAb (Promega, Madison, Wis.) was used to detect β-galactosidase in tumor sections. […] IHC images were acquired using the Nikon TE2000 inverted microscope. The β-galactosidase staining was evaluated by 2 people independently based on the scoring system listed below. The average of the score was calculated for each tumor.

Measured: In vivo Response (β-galactosidase IHC staining score)

C[C@H]1c2cccc(O)c2C(=O)C2=C(O)[C@]3(O)C(=O)C(C(N)=O)=C(O)[C@@H](N(C)C)[C@@H]3[C@@H](O)[C@@H]21 [Doxycycline]
+++: column 1 (individual tumor, head not explained) | column 2 (individual tumor, head not explained) | column 3 (individual tumor, head not explained) | column 4 (individual tumor, head not explained) | column 5 (individual tumor, head not explained) | column 6 (individual tumor, head not explained)
